Structures can show the parent of a compound that is named as a salt.
Target: CK2A1 (CK2α/β) (Homo sapiens, UniProt P68400)
Assay: CK2 kinase assay, CK2A1 (CK2α/β)
Type: biochemical
Settings: Table A; read-out: CK2A1 (CK2α/β) (IC50)

Sequence of CK2A1 (CK2α/β) (P68400 whole entry, species assumed): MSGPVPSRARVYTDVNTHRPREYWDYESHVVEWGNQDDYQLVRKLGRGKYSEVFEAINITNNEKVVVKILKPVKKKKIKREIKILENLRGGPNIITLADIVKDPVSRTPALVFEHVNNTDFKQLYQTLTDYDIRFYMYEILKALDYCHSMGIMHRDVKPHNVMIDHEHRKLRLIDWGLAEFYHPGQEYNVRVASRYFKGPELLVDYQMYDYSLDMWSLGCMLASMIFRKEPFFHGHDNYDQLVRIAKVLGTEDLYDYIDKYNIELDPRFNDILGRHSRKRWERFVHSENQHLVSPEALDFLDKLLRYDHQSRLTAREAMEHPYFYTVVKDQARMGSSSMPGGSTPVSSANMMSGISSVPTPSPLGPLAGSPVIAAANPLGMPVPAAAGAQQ
Sequence of CK2A1 (CK2α/β) (P67870 whole entry partner, species assumed): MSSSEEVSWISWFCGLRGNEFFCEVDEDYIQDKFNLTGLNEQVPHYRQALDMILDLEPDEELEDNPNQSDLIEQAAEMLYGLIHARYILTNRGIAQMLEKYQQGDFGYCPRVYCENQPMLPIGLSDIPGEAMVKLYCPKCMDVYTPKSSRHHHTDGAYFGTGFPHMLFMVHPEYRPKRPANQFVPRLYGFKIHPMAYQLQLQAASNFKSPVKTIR

| SMILES | IC50 [nM] |
| --- | --- |
| N#Cc1cc(Nc2nc(NC3CC3)c3ncc(C#N)n3n2)c(Cl)c(N2CCN(C3CCC3=O)CC2)c1 (stereo not drawn) [Example 62, 2-((2-chloro-5-cyano-3-(4-(2-oxocyclobutyl)piperazin-1-yl)phenyl)amino)-4-(cyclopropylamino) imidazo[2,1-f][1,2,4] triazine-7-carbonitrile] | 3.02 |
| N#Cc1cc(Nc2nc(NC3CC3)c3ncc(C#N)n3n2)c(Cl)c(N2CCN(C3CN(C(=O)CCO)C3)CC2)c1 [Example 495, 2-[(2-chloro-5-cyano-3-{4-[1-(3-hydroxypropanoyl)azetidin-3-yl]piperazin-1-yl}phenyl)amino]-4-(cyclopropylamino)imidazo[2,1-f][1,2,4]triazine-7-carbonitrile] | 4.89 |
| CC(C)(C)NCC(O)c1cc(C#N)cc(Nc2nc(NC3CC3)c3ncc(C#N)n3n2)c1Cl (stereo not drawn) [Example 692, 2-((3-(2-(tert-butylamino)-1-hydroxyethyl)-2-chloro-5-cyanophenyl)amino)-4-(cyclopropylamino)imidazo[2,1-f][1,2,4]triazine-7-carbonitrile] | 1.81 |
| CC1(O)CN(C2CN(c3cc(C#N)cc(Nc4nc(NC5CC5)c5ncc(C#N)n5n4)c3Cl)C2)C1 [Example 168, 2-((2-chloro-5-cyano-3-(3-hydroxy-3-methyl-1,3′-biazetidin-1′-yl)phenyl)amino)-4-(cyclopropylamino)imidazo [2,1-f][1,2,4]triazine-7-carbonitrile] | 0.68 |
| COC[C@H](O)CNC1CCN(c2cc(C#N)cc(Nc3nc(NC4CC4)c4ncc(C#N)n4n3)c2Cl)CC1 [Example 145, 2-((2-chloro-5-cyano-3-(4-(((2R)-2-hydroxy-3-methoxypropyl)amino)-1-piperidinyl)phenyl)amino)-4-(cyclopropylamino)imidazo [2,1-f][1,2,4]triazine-7-carbonitrile] | 5.48 |
| CCNc1nc(Nc2ccc3c(c2)c(C#N)cn3C2CCN(CC(O)CF)CC2)nn2c(C#N)cnc12 (racemic) [Example 824, (+/−)-2-((3-cyano-1-(1-(3-fluoro-2-hydroxypropyl)piperidin-4-yl)-1H-indol-5-yl)amino)-4-(ethylamino)imidazo[2,1-f][1,2,4]triazine-7-carbonitrile] | 0.8 |
| CCNc1nc(Nc2cc(C#N)cc(N3CCN(CC(C)O)CC3)c2Cl)nn2c(C#N)cnc12 (stereo in doubt) [Example 429, 2-((2-chloro-5-cyano-3-(4-((2R)-2-hydroxypropyl)-1-piperazinyl)phenyl)amino)-4-(ethylamino)imidazo[2,1-f][1,2,4]triazine-7-carbonitrile] | 1.28 |
| N#Cc1cc(Nc2nc(NC3CC3)c3ncc(C#N)n3n2)c(Cl)cc1NC1CCN(C2COC2)CC1 [Example 411, 2-((2-chloro-5-cyano-4-((1-(oxetan-3-yl)piperidin-4-yl)amino)phenyl)amino)-4-(cyclopropylamino)imidazo[2,1-f][1,2,4]triazine-7-carbonitrile] | 0.76 |
| C[C@@H]1CC(CN2CCN(c3cc(C#N)cc(Nc4nc(NC5CC5)c5ncc(C#N)n5n4)c3Cl)CC2)O1 (stereo partly drawn) [Example 528, 2-((2-chloro-5-cyano-3-(4-(((4R)-4-methyloxetan-2-yl)methyl)piperazin-1-yl)phenyl)amino)-4-(cyclopropylamino)imidazo[2,1-f][1,2,4]triazine-7-carbonitrile] | 0.4 |
| CCNc1nc(Nc2cc(C#N)cc(N3CC[C@@H](NC(=O)OC)[C@H](OC(=O)[C@H](N)CC(N)=O)C3)c2Cl)nn2c(C#N)cnc12 [Example 818, (R)-(3R,4R)-1-(2-chloro-5-cyano-3-((7-cyano-4-(ethylamino)imidazo[2,1-f][1,2,4]triazin-2-yl)amino)phenyl)-4-((methoxycarbonyl)amino)piperidin-3-yl 2,4-diamino-4-oxobutanoate hydrochloride] | 2.49 |
| N#Cc1cc(Nc2nc(NC3CC3)c3ncc(C#N)n3n2)c(Cl)c(N2CCCOC2=O)c1 [Example 627, 2-((2-chloro-5-cyano-3-(2-oxo-1,3-oxazinan-3-yl)phenyl)amino)-4-(cyclopropylamino)imidazo[2,1-f][1,2,4]triazine-7-carbonitrile] | 0.83 |
| CCNc1nc(Nc2ccc3c(c2)c(C#N)cn3C2CCN(C3COCC3O)CC2)nn2c(C#N)cnc12 (racemic) [Example 825, (+/−)-2-((3-cyano-1-(1-(4-hydroxytetrahydrofuran-3-yl)piperidin-4-yl)-1H-indol-5-yl)amino)-4-(ethylamino)imidazo[2,1-f][1,2,4]triazine-7-carbonitrile] | 0.3 |
| C[C@H](O)C(=O)N1CC2(CCN(c3cc(C#N)cc(Nc4nc(NC5CC5)c5ncc(C#N)n5n4)c3Cl)CC2)C1 [Example 795, (S)-2-((2-chloro-5-cyano-3-(2-(2-hydroxypropanoyl)-2,7-diazaspiro[3.5]nonan-7-yl)phenyl)amino)-4-(cyclopropylamino)imidazo[2,1-f][1,2,4]triazine-7-carbonitrile] | 1.12 |
| N#Cc1cc(Nc2nc(NC3CC3)c3ncc(C#N)n3n2)c(Cl)c(N2CCN(C3CN(S(=O)(=O)C4CC4)C3)CC2)c1 [Example 504, 2-[(2-chloro-5-cyano-3-{4-[1-(cyclopropanesulfonyl)azetidin-3-yl]piperazin-1-yl}phenyl)amino]-4-(cyclopropylamino)imidazo[2,1-f][1,2,4]triazine-7-carbonitrile] | 4.07 |
| N#Cc1cnc2c(NC3CC3)nc(Nc3cc(C(F)F)cc(N4CCNCC4)c3Cl)nn12 [Example 246, 2-((2-chloro-5-(difluoromethyl)-3-(1-piperazinyl)phenyl)amino)-4-(cyclopropylamino)imidazo[2,1-f][1,2,4]triazine-7-carbonitrile] | 0.96 |
| N#Cc1cc(Nc2nc(NC3CC3)c3ncc(C#N)n3n2)c(Cl)c(N2CCN(CC(O)CF)CC2=O)c1 (racemic) [Example 622, (+/−)-2-((2-chloro-5-cyano-3-(4-(3-fluoro-2-hydroxypropyl)-2-oxopiperazin-1-yl)phenyl)amino)-4-(cyclopropylamino)imidazo[2,1-f][1,2,4]triazine-7-carbonitrile] | 1.09 |
| N#Cc1cc(Nc2nc(NC3CC3)c3ncc(C#N)n3n2)c(Cl)c(N2CCN(CC(N)=O)CC2)c1 [Example 600, 2-[4-(2-chloro-5-cyano-3-{[7-cyano-4-(cyclopropylamino)imidazo[2,1-f][1,2,4]triazin-2-yl]amino}phenyl)piperazin-1-yl]acetamide] | 0.53 |
| C[C@H]1CC(CN2CCN(c3cc(C#N)cc(Nc4nc(NC5CC5)c5ncc(C#N)n5n4)c3Cl)CC2)O1 (stereo partly drawn) [Example 529, 2-((2-chloro-5-cyano-3-(4-(((4S)-4-methyloxetan-2-yl)methyl)piperazin-1-yl)phenyl)amino)-4-(cyclopropylamino)imidazo[2,1-f][1,2,4]triazine-7-carbonitrile] | 1.33 |
| N#Cc1cc(Nc2nc(NC3CC3)c3ncc(C#N)n3n2)c(Cl)c(N2CCN(C(=O)Cn3ccnc3)CC2)c1 [Example 97, 2-((2-chloro-5-cyano-3-(4-(1H-imidazol-1-ylacetyl)-1-piperazinyl)phenyl)amino)-4-(cyclopropylamino) imidazo[2,1-f][1,2,4] triazine-7-carbonitrile] | 0.53 |
| COC[C@H](O)CN1CCN(c2cc(C#N)cc(Nc3nc(NC4CC4)c4ncc(C#N)n4n3)c2Cl)CC1 [Example 606, 2-[(2-chloro-5-cyano-3-{4-[(2R)-2-hydroxy-3-methoxypropyl]piperazin-1-yl}phenyl)amino]-4-(cyclopropylamino)imidazo [2,1-f][1,2,4]triazine-7-carbonitrile] | 0.72 |
| N#Cc1cc(Nc2nc(NC3CC3)c3ncc(C#N)n3n2)c(Cl)c(N2CCN([C@H]3C[C@H](O)C3)CC2)c1 [Example 102, (+/−) 2-((2-chloro-5-cyano-3-(4-(trans-3-hydroxycyclobutyl)-1-piperazinyl)phenyl)amino)-4-(cyclopropylamino) imidazo[2,1-f][1,2,4] triazine-7-carbonitrile] | 1.1 |
| COCCOCCNc1cc(C#N)cc(Nc2nc(NC3CC3)c3ncc(C#N)n3n2)c1Cl [Example 616, 2-((2-chloro-5-cyano-3-((2-(2-methoxyethoxy)ethyl)amino)phenyl)amino)-4-(cyclopropylamino)imidazo[2,1-f][1,2,4]triazine-7-carbonitrile] | 0.86 |
| COC(=O)N[C@H]1CCN(c2cc(C#N)cc(Nc3nc(NC4CC4)c4ncc(C#N)n4n3)c2Cl)CC1N(C)C1COC1 (stereo partly drawn) [Example 763, methyl N-[(4S)-1-(2-chloro-5-cyano-3-{[7-cyano-4-(cyclopropylamino)imidazo [2,1-f][1,2,4]triazin-2-yl]amino}phenyl)-3-[methyl(oxetan-3-yl)amino]piperidin-4-yl]carbamate] | 1.35 |
| CC(O)CNC1CCN(c2cc(C#N)cc(Nc3nc(NC4CC4)c4ncc(C#N)n4n3)c2Cl)CC1 (racemic) [Example 138, (+/−).2-(2-chloro-5-cyano-3-(4-(2-hydroxypropylamino)piperidin-1-yl)phenylamino)-4-(cyclopropylamino)imidazo [1,2-f][1,2,4]triazine-7-carbonitrile] | 0.64 |
| CCNc1nc(Nc2ccc3c(c2)c(C#N)cn3C2CCN([C@H]3COC[C@@H]3O)CC2)nn2c(C#N)cnc12 [Example 827, 2-((3-cyano-1-(1-((3S,4R)-4-hydroxytetrahydrofuran-3-yl)piperidin-4-yl)-1H-indol-5-yl)amino)-4-(ethylamino)imidazo[2,1-f][1,2,4]triazine-7-carbonitrile] | 0.75 |
| CC1(N)CCN(c2cc(C#N)cc(Nc3nc(NC4CC4)c4ncc(C#N)n4n3)c2Cl)CC1 [Example 18, 2-((3-(4-amino-4-methyl-1-piperidinyl)-2-chloro-5-cyanophenyl)amino)-4-(cyclopropylamino)imidazo [2,1-f][1,2,4]triazine-7-carbonitrile] | 0.55 |
| CC(C)(O)CNCC(O)c1cc(C#N)cc(Nc2nc(NC3CC3)c3ncc(C#N)n3n2)c1Cl (stereo not drawn) [Example 691, 2-((2-chloro-5-cyano-3-(1-hydroxy-2-((2-hydroxy-2-methylpropyl)amino)ethyl)phenyl)amino)-4-(cyclopropylamino)imidazo[2,1-f][1,2,4]triazine-7-carbonitrile] | 1.81 |
